Test results from patent publication EP4389751A1, “HETEROCYCLIC COMPOUNDS AND USES THEREOF” (Kumquat Biosciences Inc., priority 2021, dated 2024).
Like-named read-outs stand apart in the source and are kept apart here.

Legend:
[1] = test system: GP2D cells; experiment: Cell proliferation assay (CellTiter-Glo), K-Ras G12D cells; assay type: cell-based; settings: read-out: Inhibition of GP2D Cells (IC50)
Experimental: ASPC-1 (ATCC CRL-1682), Panc-10.05 (ATCC CRL-2547), A427, and GP2D (Sigma 95090714) cell lines comprise a G12D mutation and can be used to assess Ras cellular signaling in vitro, e.g., in response to the compounds herein. […] ASPC-1 culture medium is prepared with RPMI-1640 and 10% heat-inactivated FBS. Panc-10.05 culture medium is prepared with RPMI-1640, 10 Units/ml human recombinant insulin, and 10% FBS. A427 cell culture is prepared with RPMI-1640 and 10% heat-inactivated FBS. GP2D culture medium is prepared with DMEM with 2mM glutamine and 10% heat-inactivated FBS. A Cell Titer-Glo (CTG) luminescent based assay (Promega) is used to assess growth of the cells, as a measurement of the ability of the compounds herein to inhibit Ras signaling in the cells. The cells (e.g., 800 per well) are seeded in their respective culture medium in standard tissue culture-treated 384-well format plates (Falcon #08-772-116) or ultra-low attachment surface 384-well format plates (S-Bio # MS-9384UZ ). The day after plating, cells are treated with a dilution series (e.g., a 9 point 3-fold dilution series) of the compounds herein (e.g., approximately 40 µl final volume per well). Cell viability can be monitored (e.g., approximately 5 days later) according to the manufacturer's recommended instructions, where the CellTiter-Glo reagent is added (e.g., approximately 10 µl), vigorously mixed, covered, and placed on a plate shaker (e.g., approximately for 20 min) to ensure sufficient cell lysis prior to assessment of luminescent signal. The IC50 values are determined using the four parameter fit. The resulting IC50 value is a measurement of the ability of the compounds herein to reduce cell growth of Ras-driven cells (e.g., tumor cell lines) in vitro and/or in vivo.

[2] = biological target: T1, K-Ras G12S (Homo sapiens, UniProt P01116, G12S); experiment: HTRF assay of the K-Ras / SOS1 interaction; assay type: biochemical; settings: IC50 (against K-Ras G12D) to IC50 (against K-Ras G12S)
T1 construct: made in house; host or cells: E. coli (e.g., BL21 (DE3))
How it was run: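 Compounds (duplicates, 10 µM to 0.01 µM) were incubated ≥~10 min with Eu-labelled GST-K-Ras G12S and XL665-labelled His-hSOS1 in HEPES pH 7.4 buffer containing NaCl, DTT, BSA and Igepal. Disruption measured as HTRF emission ratio 665/620 nm, fitted to IC50.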

## Nc1nc2c(-c3c(Cl)cc4c(N5CC6CCC(C5)N6C(=O)n5cc(F)cn5)nc(OC[C@@]56CCCN5C[C@H](F)C6)nc4c3F)ccc(F)c2s1 [Compound A101, (3-(7-(2-amino-7-fluorobenzo[d]thiazol-4-yl)-6-chloro-8-fluoro-2-(((2R,7aS)-2-fluorotetrahydro-1H-pyrrolizin-7a(5H)-yl)methoxy)quinazolin-4-yl)-3,8-diazabicyclo[3.2.1]octan-8-yl)(4-fluoro-1H-pyrazol-1-yl)methanone]
[1]; GP2d
  IC50: 1000 to 10000 nM
[2]
  Ratio of IC50 KRAS G12D vs. IC50 KRAS G12S: A (A: indicates that the ratio of IC50 against KrasG12D vs. IC50 against KrasG12S is 1-fold or greater)

## N#Cc1c(N)sc2c(F)ccc(-c3ncc4c(N5CC6CCC(C5)N6C(=O)n5cncn5)nc(OC[C@@]56CCCN5C[C@H](F)C6)nc4c3F)c12 [Compound A206, 4-(4-(8-(1H-1,2,4-triazole-1-carbonyl)-3,8-diazabicyclo[3.2.1]octan-3-yl)-8-fluoro-2-(((2R,7aS)-2-fluorotetrahydro-1H-pyrrolizin-7a(5H)-yl)methoxy)pyrido[4,3-d]pyrimidin-7-yl)-2-amino-7-fluorobenzo[b]thiophene-3-carbonitrile]
[1]; GP2D cells (K-Ras G12D)
  IC50: ≤ 1000 nM
[2]
  Ratio of IC50 KRAS G12D vs. IC50 KRAS G12S: A (A: indicates that the ratio of IC50 against KrasG12D vs. IC50 against KrasG12S is 1-fold or greater)

## Nc1nc2c(-c3c(Cl)cc4c(N5CCC6CN(C(=O)n7cncn7)CC6C5)nc(OC[C@@]56CCCN5C[C@H](F)C6)nc4c3F)ccc(F)c2s1 (stereo partly drawn) [Compound A294, (5-(7-(2-amino-7-fluorobenzo[d]thiazol-4-yl)-6-chloro-8-fluoro-2-(((2R,7aS)-2-fluorotetrahydro-1H-pyrrolizin-7a(5H)-yl)methoxy)quinazolin-4-yl)octahydro-2H-pyrrolo[3,4-c]pyridin-2-yl)(1H-1,2,4-triazol-1-yl)methanone]
[1]; GP2D cells (K-Ras G12D)
  IC50: 1000 to 10000 nM
[2]
  Ratio of IC50 KRAS G12D vs. IC50 KRAS G12S: A (A: indicates that the ratio of IC50 against KrasG12D vs. IC50 against KrasG12S is 1-fold or greater)

## 2-amino-4-(6-chloro-8-fluoro-2-(((2R,7aS)-2-fluorotetrahydro-1H-pyrrolizin-7 a(5H)-yl)methoxy)-4-(8-(4-methyl-1H-1,2,3-triazole-1-carbonyl)-3,8-diazabicyclo[3.2.1]octan-3-yl)quinazolin-7-yl)-7-fluorobenzo[b]thiophene-3-carbonitrile [Compound A189]
[1]; GP2D cells (K-Ras G12D)
  IC50: ≤ 1000 nM
[2]
  Ratio of IC50 KRAS G12D vs. IC50 KRAS G12S: A (A: indicates that the ratio of IC50 against KrasG12D vs. IC50 against KrasG12S is 1-fold or greater)

## Nc1nc2c(-c3c(Cl)cc4c(NCCN5CCN(C(=O)n6cncn6)CC5)nc(OC[C@@]56CCCN5C[C@H](F)C6)nc4c3F)ccc(F)c2s1 [Compound A156, (4-(2-((7-(2-amino-7-fluorobenzo[d]thiazol-4-yl)-6-chloro-8-fluoro-2-(((2R,7aS)-2-fluorotetrahydro-1H-pyrrolizin-7a(5H)-yl)methoxy)quinazolin-4-yl)amino)ethyl)piperazin-1-yl)(1H-1,2,4-triazol-1-yl)methanone]
[1]; GP2D cells (K-Ras G12D)
  IC50: 1000 to 10000 nM
[2]
  Ratio of IC50 KRAS G12D vs. IC50 KRAS G12S: A (A: indicates that the ratio of IC50 against KrasG12D vs. IC50 against KrasG12S is 1-fold or greater)

## Nc1nc2c(-c3c(Cl)cc4c(N5CCC6(CC5)CN(C(=O)n5cnc(F)c5)C6)nc(OC[C@@]56CCCN5C[C@H](F)C6)nc4c3F)ccc(F)c2s1 [Compound A303, (7-(7-(2-amino-7-fluorobenzo[d]thiazol-4-yl)-6-chloro-8-fluoro-2-(((2R,7aS)-2-fluorotetrahydro-1H-pyrrolizin-7a(5H)-yl)methoxy)quinazolin-4-yl)-2,7-diazaspiro[3.5]nonan-2-yl)(4-fluoro-1H-imidazol-1-yl)methanone]
[1]; GP2D cells (K-Ras G12D)
  IC50: 1000 to 10000 nM
[2]
  Ratio of IC50 KRAS G12D vs. IC50 KRAS G12S: A (A: indicates that the ratio of IC50 against KrasG12D vs. IC50 against KrasG12S is 1-fold or greater)

## Nc1nc2c(-c3c(Cl)cc4c(N5CC6CCC(C5)N6C(=O)Nc5cncnc5)nc(OC[C@@]56CCCN5C[C@H](F)C6)nc4c3F)ccc(F)c2s1 [Compound A124, 3-(7-(2-amino-7-fluorobenzo[d]thiazol-4-yl)-6-chloro-8-fluoro-2-(((2R,7aS)-2-fluorotetrahydro-1H-pyrrolizin-7a(5H)-yl)methoxy)quinazolin-4-yl)-N-(pyrimidin-5-yl)-3,8-diazabicyclo[3.2. 1]octane-8-carboxamide]
[1]; GP2d
  IC50: ≤ 1000 nM
[2]
  Ratio of IC50 KRAS G12D vs. IC50 KRAS G12S: A (A: indicates that the ratio of IC50 against KrasG12D vs. IC50 against KrasG12S is 1-fold or greater)

## Nc1nc2c(-c3c(Cl)cc4c(NC5CCN(C(=O)n6cnc(F)c6)CC5)nc(OC[C@@]56CCCN5C[C@H](F)C6)nc4c3F)ccc(F)c2s1 [Compound A193, (4-((7-(2-amino-7-fluorobenzo[d]thiazol-4-yl)-6-chloro-8-fluoro-2-(((2R,7aS)-2-fluorotetrahydro-1H-pyrrolizin-7a(5H)-yl)methoxy)quinazolin-4-yl)amino)piperidin-1-yl)(4-fluoro-1H-imidazol-1-yl)methanone]
[1]; GP2D cells (K-Ras G12D)
  IC50: 1000 to 10000 nM
[2]
  Ratio of IC50 KRAS G12D vs. IC50 KRAS G12S: A (A: indicates that the ratio of IC50 against KrasG12D vs. IC50 against KrasG12S is 1-fold or greater)

## Nc1nc2c(-c3c(Cl)cc4c(N5CCC6(CCN(C(=O)n7cncn7)CC6)CC5)nc(OC[C@@]56CCCN5C[C@H](F)C6)nc4c3F)ccc(F)c2s1 [Compound A250, (9-(7-(2-amino-7-fluorobenzo[d]thiazol-4-yl)-6-chloro-8-fluoro-2-(((2R,7aS)-2-fluorotetrahydro-1H-pyrrolizin-7a(5H)-yl)methoxy)quinazolin-4-yl)-3,9-diazaspiro[5.5]undecan-3-yl)(1H-1,2,4-triazol-1-yl)methanone]
[1]; GP2D cells (K-Ras G12D)
  IC50: 1000 to 10000 nM
[2]
  Ratio of IC50 KRAS G12D vs. IC50 KRAS G12S: A (A: indicates that the ratio of IC50 against KrasG12D vs. IC50 against KrasG12S is 1-fold or greater)

## Nc1nc2c(-c3c(Cl)cc4c(NC5CC6(C5)CN(C(=O)n5cncn5)C6)nc(OC[C@@]56CCCN5C[C@H](F)C6)nc4c3F)ccc(F)c2s1 [Compound A211, (6-((7-(2-amino-7-fluorobenzo[d]thiazol-4-yl)-6-chloro-8-fluoro-2-(((2R,7aS)-2-fluorotetrahydro-1H-pyrrolizin-7a(5H)-yl)methoxy)quinazolin-4-yl)amino)-2-azaspiro[3.3]heptan-2-yl)(1H-1,2,4-triazol-1-yl)methanone]
[1]; GP2D cells (K-Ras G12D)
  IC50: 1000 to 10000 nM
[2]
  Ratio of IC50 KRAS G12D vs. IC50 KRAS G12S: A (A: indicates that the ratio of IC50 against KrasG12D vs. IC50 against KrasG12S is 1-fold or greater)

## N#Cc1nccn1C(=O)N1CC2CCC(C1)N2c1nc(OC[C@@]23CCCN2C[C@H](F)C3)nc2c(F)c(-c3ccc(F)c4sc(N)nc34)c(Cl)cc12 [Compound A238, 1-(8-(7-(2-amino-7-fluorobenzo[d]thiazol-4-yl)-6-chloro-8-fluoro-2-(((2R,7aS)-2-fluorotetrahydro-1H-pyrrolizin-7a(5H)-yl)methoxy)quinazolm-4-yl)-3,8-diazabicyclo[3.2. 1]octane-3-carbonyl)-1H-imidazole-2-carbonitrile]
[1]; GP2D cells (K-Ras G12D)
  IC50: ≤ 1000 nM
[2]
  Ratio of IC50 KRAS G12D vs. IC50 KRAS G12S: A (A: indicates that the ratio of IC50 against KrasG12D vs. IC50 against KrasG12S is 1-fold or greater)

## Nc1nc2c(-c3c(Cl)cc4c(NC5CCN(C(=O)n6ccnc6)CC5)nc(OC[C@@]56CCCN5C[C@H](F)C6)nc4c3F)ccc(F)c2s1 [Compound A117, (4-((7-(2-amino-7-fluorobenzo[d]thiazol-4-yl)-6-chloro-8-fluoro-2-(((2R,7aS)-2-fluorotetrahydro-1H-pyrrolizin-7a(5H)-yl)methoxy)quinazolin-4-yl)amino)piperidin-1-yl)(1H-imidazol-1-yl)methanone]
[1]; GP2D cells (K-Ras G12D)
  IC50: 1000 to 10000 nM
[2]
  Ratio of IC50 KRAS G12D vs. IC50 KRAS G12S: A (A: indicates that the ratio of IC50 against KrasG12D vs. IC50 against KrasG12S is 1-fold or greater)

## Cc1cnn(C(=O)N2CCN(c3nc(OC[C@@]45CCCN4C[C@H](F)C5)nc4c(F)c(-c5ccc(F)c6sc(N)nc56)c(Cl)cc34)CC(F)(F)C2)c1 [Compound A203, (4-(7-(2-amino-7-fluorobenzo[d]thiazol-4-yl)-6-chloro-8-fluoro-2-(((2R,7aS)-2-fluorotetrahydro-1H-pyrrolizin-7a(5H)-yl)methoxy)quinazolm-4-yl)-6,6-difluoro-1,4-diazepan-1-yl)(4-methyl-1H-pyrazol-1-yl)methanone]
[1]; GP2D cells (K-Ras G12D)
  IC50: 1000 to 10000 nM
[2]
  Ratio of IC50 KRAS G12D vs. IC50 KRAS G12S: A (A: indicates that the ratio of IC50 against KrasG12D vs. IC50 against KrasG12S is 1-fold or greater)
